Data on one molecule can be found in patent US6642215B2 (Leo Pharma A/S, priority 2001, dated 2003).

In test [1] the test system is NF-κB. In words: NF-κB-dependent luciferase assay in Colo-320 cells, TNF-α stimulation. The settings on record: Homo sapiens, compound 24 h before TNF-α 50 ng/ml 6 h, mean ± SD. It counts as cell-based, human. The protocol: The NF-κB-luciferase reporter plasmid (pBIIX) and pRL-TK control vector described in Example 1 were used for the luciferase assay,
The Colo-320 cells were seeded with a density of 5×10^4 cells/cm^2 in 6-well plates (NUNC). The following day, the cells were co-transfected with construct DNA and pRL-TK using FuGene Transfection Reagent (Boehringer Mannheim). A mixture of 5 μl Fugene and 95 μl serum free medium (per well) was prepared and incubated for 5 min at room temperature. Then, the mixture was transferred to a mixture of construct DNA (2.5 μg per well) and pRL-TK vector (0.25 μg per well), gently mixed, incubated for 15 min at room temperature and added to the cells. The cells were treated at 37° C. with compound A (10^−12−10^−5 M) or DMSO for 24 h before stimulation with TNF-α (50 ng/ml) for 6 h.
The cell lysate was assayed for luciferase activity using the Dual luciferase kit as described by the manufacturer (Promega). All transfections were performed in triplicate. Firefly luciferase activity was corrected for differences in transfection efficiency by normalizing it to the measured Renilla luciferase activity.
NF-κB activity was measured by the luciferase assay described in Example 1.

The subject of test [2] is NF-κB. In words: EMSA of NF-κB DNA binding activity in nuclear extracts of LPS-stimulated THP-1 cells. In kind it is cell-based, human. The settings on record: 1 μM compound 24 h. The protocol: EMSA: For preparation of nuclear extracts, 10^7 cells were used at each experimental point. Following treatment of the THP-1 cells with either 1 μM of compound A for 24 h and stimulation with 1 μg/ml LPS at the indicated times, the cells were washed twice in PBS, and the cells were extracted for protein. The cells were resuspended in 500 μl buffer A (20 mM HEPES (pH 7.8), 0.1 mM EDTA, 10 mM KCL) with a protease inhibitor mixture (1 mM DTT, 0.5 mM Pefablock). Afterwards, the cells were incubated on ice for 15 min, then 30 μl 10% NP 40 was added and the cells were centrifuged at 5000×g. Each cell pellet was then resuspended in 50 μl buffer B (buffer A with 400 mM NaCl) and vortexed, followed by incubation for 15 min at 4° C. and centrifugation at 5000×g for 5 min at 4° C. The supernatant from each cell pellet was collected and the protein concentration quantified using the BCA-200 protein assay kit from Pierce (Rockford, Ill., USA). The nuclear extracts were stored at −80° C.
Double-stranded κB oligos (5′-AGTTGAGGGGACTTTCCCAGGC-3′ and the complement strand) were purchased from Promega. […] After electrophoresis at 4° C., the gel was dried, and the protein-DNA complexes were visualized and quantified on the STORM 860 Phospholmager using the ImageQuaNT software (available from Molecular Dynamics).
In general terms: Mobility shift assays separate free from complexed probe on a gel.

Another test concerns NYH Xenografts. In words: NYH xenografts in nude mice, tumour growth. In kind it is in vivo, NMRI nu/nu mice. The protocol:
(§1) All of the animal experiments were conducted according to the guidelines and ethical standards of the Danish Committee for Animal Experiments. Female NMRI nu/nu mice 6 weeks of age were purchased from M&B (Ry, Denmark). The mice were allowed an acclimatisation period of 1-3 weeks before start of the experiments. The nude mice were housed in Scantainers under semi-sterile conditions and all handling of mice was performed in a laminar flow bench.
NYH Xenografts. NMRI nu/nu mice were injected with 1×10^7 cells in 0.2 ml media s.c. in both flanks and tumour growth was measured twice weekly. The tumour area was used as expression of the tumour size and was calculated from two perpendicular diameters measured with a digital caliper. Compound A was given for fourteen consecutive days by oral gavage from day 4-6 when the tumour size was 24-30 mm^2. Each treatment group consisted of 10 mice.
(§2) Statistical Methods In the animal models, tumour sizes were expressed by the mean of the trends in each treatment group. The trend is the linear increment or tumour size, where tumour size is the square root of the (mean) area of the tumour(s). Comparison with controls was expressed as T/C % and calculated as follows:
A=(overall mean tumour size at baseline+mean trend of treatment*intended days of treatment)
B=(overall mean tumour size at baseline+mean trend of control*intended days of treatment)
Overall mean tumour size at baseline=pooling all treatments this is the mean of all baseline values. For each mouse the baseline value is calculated as the square root of the (mean) area of the tumour(s).
Significance was tested with the Bonferroni correction. This correction is a method for adjusting (lowering) the significance level so the overall finding of one significant difference due to chance is around 5 percent.

For another test, the system named is PC-3 Xenografts. In words: PC-3 xenografts in nude mice, tumour growth. The settings on record: PC-3 xenograft, 50 mg/kg, oral gavage. In kind it is in vivo, NMRI nu/nu mice. The protocol: as §1
PC-3 Xenografts. NMRI nu/nu mice were injected with 1×10^6 cells in 0.2 ml media s.c. in each flank and tumour size was measured as mentioned above. Compound A was given for four weeks by oral gavage from day 14 when the tumour size was about 12 mm^2. Each treatment group consisted of 10 mice.
as §2
A=(overall mean tumour size at baseline+mean trend of treatment*intended days of treatment) […]
Overall mean tumour size at baseline=pooling all treatments this is the mean of all baseline values. For each mouse the baseline value is calculated as the square root of the (mean) area of the tumour(s). […]

Regarding `N#CNC(=Nc1ccncc1)NCCCCCCOc1ccc(Cl)cc1` [compound A, N-(6-(4-chlorophenoxy)hexyl)-N′-cyano-N″-(4-pyridyl)guanidine], in the test with NF-κB [1], half-maximal inhibition (IC50) required 84 ± 33 nM. Also, the “NF-κB DNA-binding activity suppressed compared to the control” value in the test on NF-κB [2] (after 0.5 to 4 h of LPS-stimulation) is 2 fold; in the test on NF-κB [2] (after 24 h of LPS-stimulation) it was 5 fold. Moreover, the “In vivo xenografts in nude mice T/C (%)” value is given as −100% in the test with NYH Xenografts (NYH SCLC xenograft, 50 mg/kg, oral gavage) and −5% in the test with PC-3 Xenografts. Besides, the “NYH tumor growth in vivo (T/C in %)” value in the test on NYH Xenografts (nude mice with NYH SCLC tumours, 14 days of treatment with 20 mg/kg) is recorded as −44%.
